In patent US20230110128A1, “USE OF ANTIBODY DRUG CONJUGATES COMPRISING TUBULIN DISRUPTING AGENTS TO TREAT SOLID TUMOR” (Seagen Inc., priority 2018, published 2023):

Columns and labels:
[1] = tested on: MCF7 breast cancer cells; test: Western blot analysis of ER stress response in MCF7 cells; assay type: cell-based; settings: FIG. 16A
Experimental: MCF7 breast cancer cells were treated with 100 nM MMAE for 16 hours and harvested RIPA buffer for western blot analysis.
MCF7 cells were treated with MMAE or an MMAE-containing ADC (SGN-LIV1A) for 16 hours and harvested in […] for western bot analysis. […] Induction of ICD is also characterized by the secretion of ATP and HMGB1. Extracellular ATP serves as a strong chemotactic signal, promoting immune cell migration to the tumor site. Upon arrival, extracellular HMGB1 signals through various pro-inflammatory receptors (TLR2, TLR4, RAGE) to activate antigen-presenting cells, thereby promoting immune activity within the tumor.

[2] = tested on: MCF7 cells; test: ATP secretion from MCF7 cells; assay type: cell-based; settings: after 48 hours of treatment
[3] = tested on: BxPC3 and HPAFII (pancreas) cells co-cultured with macrophages; test: Macrophage antigen presentation after co-culture with treated pancreas tumor cells; assay type: cell-based; settings: BxPC3 and HPAFII treated 24 hours; macrophages harvested 4 days after co-culture
Experimental: Macrophages were enriched from PBMCs from 2 healthy donors by adhering PBMCs to cell culture-grade plastic. Non-adherent cells were removed 24 hours later, leaving a population of cells enriched for macrophages.
BxPC3 and HPAFII (pancreas) cells were treated with MMAE, vincristine, and Paclitaxel for 24 hours. Cells were washed and harvested, and subsequently co-cultured with the enriched macrophages prepared above. Macrophages were harvested 4 days after co-culture and assayed for immune activation by flow cytometry. Level of antigen-presentation (as measured by frequency of MHCII-expressing cells) was quantified and normalized to macrophages that were co-cultured with untreated tumor cells.

[4] = tested on: A2058, SK-MEL-5, SK-MEL-28, Calu-1, HT-1080, SK-MES-1, BXPC3 and HPAFII cells; test: HMGB1 release by ELISA in a panel of solid tumor cell lines; assay type: cell-based; settings: supernatant after one night of treatment
Experimental: A2058, SK-MEL-5, SK-MEL-28 (skin), Calu-1, HT-1080, SK-MES-1 (lung), and BXPC3 and HPAFII (pancreas) cells were treated with an MMAE-containing ADC (e.g., anti-p97-MMAE or anti-CD71-MMAE) or Paclitaxel. Supernatant was collected after one night of treatment, and analyzed for HMGB1 release by ELISA. […] See, e.g., FIG. 70 and additional description below.

[5] = tested on: BxPC-3 cells; test: ATP secretion from BxPC-3 cells; assay type: cell-based; settings: 17 hours
[6] = tested on: A2058, SK-MEL-5, SK-MEL-28 (skin) cell lines; test: ATP secretion in skin cell lines; assay type: cell-based; settings: A2058, SK-MEL-5, SK-MEL-28, after 17 hours
Experimental: (§1) Skin tumor lines A2058, SK-MEL-5 and SK-MEL-28, Calu-1 (lung), HT-1080 (fibrosarcoma), SK-MES-1 (lung), and BXPC3 (pancreas) cells were treated with MMAE, vincristine, and Paclitaxel. Supernatant was collected after 17 hours of treatment, and analyzed for ATP secretion.

[7] = tested on: MiaPaca2 cells; test: ATP secretion from MiaPaca2 cells; assay type: cell-based; settings: supernatant after 16 hours
Experimental: MiaPaca2 cells were treated with MMAE, Vincristine, or Paclitaxel. Supernatant was collected after 16 hours of treatment, and analyzed for ATP secretion.

[8] = tested on: HeLa cervical cancer cells; test: Western blot analysis of ER stress in HeLa cells; assay type: cell-based; settings: 1000 nM or 100 nM, 16 hours
Experimental: HeLa cervical cancer cells were treated with 1000 nM or 100 nM MMAE, Vincristine, or Paclitaxel for 16 hours and harvested for western blot analysis.

[9] = tested on: MiaPaca-CHOP-luciferase cells; test: CHOP-driven luciferase reporter assay of severe ER stress; assay type: cell-based; settings: after 16 hours
Experimental: Severe ER stress leads to upregulation of CHOP, and initiates mitochondrial apoptosis. MiaPaca2 pancreatic tumor cells were engineered to express a CHOP-driven luciferase reporter system (purchased from Signosis, Inc.) that allows for quantifiable monitoring of severe ER stress. MiaPaca-CHOP-luciferase cells were treated with MMAE, vincristine, and Paclitaxel, and assayed for luciferase expression after 16 hours.

[10] = tested on: PC-3 prostate tumor cells; test: ATP secretion from PC-3 cells; assay type: cell-based; settings: supernatant after 16 hours
Experimental: PC-3 prostate tumor cells were also treated with MMAE, Vincristine, or Paclitaxel. Supernatant was collected after 16 hours of treatment, and analyzed for ATP secretion. […] PC-3 cells were treated for 24 hours with an MMAE-containing ADC (SGN-LIV1A) or MMAE and harvested in RIPA buffer for western blot analysis (FIG. 3C).

[11] = tested on: MiaPaca-CHOP-luciferase cells subcutaneously engrafted; test: Tumoral CHOP luciferase signal in engrafted MiaPaca-CHOP-luciferase tumors; assay type: in vivo, NOD/SCID/gamma-chain deficient mice; settings: intratumorally; MMAE 0.36 mg/kg, vincristine 1.0 mg/kg, Paclitaxel 10 mg/kg
Experimental: MiaPaca-CHOP-luciferase cells were subcutaneously engrafted into NOD/SCID/gamma-chain deficient mice. Subcutaneous tumors were treated intratumorally with MMAE (0.36 mg/kg), vincristine (1.0 mg/kg), and Paclitaxel (10 mg/kg) and tumoral luciferase signal was monitored over time.

[12] = tested on: Hep3b, Huh7, and JHH7 cells; test: ATP secretion from liver tumor lines; assay type: cell-based; settings: Huh7, JHH7, 24 hours
Experimental: (§2) Liver tumor lines Hep3b, Huh7, and JHH7 cells were treated with MMAE, Tubulysin M, vincristine, and Paclitaxel for 24 hours and analyzed for ATP secretion. […] Cells were washed and harvested, and subsequently co-cultured with enriched macrophages prepared as above. Macrophages were harvested 4 days after co-culture and assayed for immune activation by flow cytometry. Levels of costimulation (as measured by CD86 expression, JHH7) and antigen-presentation (as measured by frequency of MHCII-expressing cells, Hep3b, Huh7, and JHH7) were quantified and normalized to macrophages that were co-cultured with […]. […] Supernatant from the co-culture of macrophages and dying liver tumor cells was harvested 24 hours later and assayed for levels of cytokine and chemokine production by ELISA and normalized to macrophages that were co-cultured with untreated tumor cells.

[13] = tested on: Hep3b, Huh7, and JHH7 cells co-cultured with macrophages; test: Cytokine and chemokine production in macrophage co-culture with treated liver tumor cells; assay type: cell-based; settings: Huh7, JHH7 co-culture supernatant 24 hours, ELISA, normalized to untreated
Experimental: as §2

[14] = tested on: A2058, SK-MEL-5, SK-MEL-28, Calu-1, HT-1080, SK-MES-1 and BXPC3 cells; test: ATP secretion in a panel of solid tumor cell lines; assay type: cell-based; settings: 7 cell lines, supernatant after 17 hours
Experimental: as §1

[15] = tested on: T-24 tumor cells co-cultured with macrophages; test: Cytokine and chemokine production in macrophage co-culture with treated T-24 cells; assay type: cell-based; settings: T-24 co-culture supernatant after 24 hours, ELISA, normalized to untreated
Experimental: (§3) T-24 (bladder) cells were treated with MMAE or an MMAE-containing ADC (ASG-22ME) for 48 hours and analyzed for ATP secretion. […] T-24 cells were also treated with MMAE, an MMAE-containing ADC (ASG22ME, Enfortumab vedotin), vincristine, and Paclitaxel for 24 hours. Cells were washed and harvested, and subsequently co-cultured with the enriched macrophages as above. Macrophages were harvested 4 days after co-culture and assayed for immune activation by flow cytometry. Level of antigen-presentation (as measured by frequency of MHCII-expressing macrophages) was quantified and normalized to macrophages that were co-cultured with untreated tumor cells. […] Supernatant from the co-culture of macrophages and dying T-24 tumor cells was harvested after 24 hours and assayed for levels of cytokine and chemokine production by ELISA and normalized to macrophages that were co-cultured with untreated tumor cells.

[16] = tested on: MDA-MB-468 cells; test: ATP secretion from MDA-MB-468 cells; assay type: cell-based; settings: supernatant after 48 hours
Experimental: MDA-MB-468 cells were treated with MMAE or an MMAE-containing ADC (ASG-22ME). Supernatant was collected after 48 hours of treatment, and analyzed for ATP secretion.

[17] = tested on: T-24 cells co-cultured with macrophages; test: Macrophage antigen presentation after co-culture with treated T-24 cells; assay type: cell-based; settings: T-24 treated 24 hours; macrophages harvested 4 days after co-culture
Experimental: as §3

[18] = tested on: T-24 (bladder) cells; test: ATP secretion from T-24 cells; assay type: cell-based; settings: 48 hours
Experimental: as §3

Compound | Severe ER stress (phosphorylation of IRE1 and JNK) [1] | ATP secretion [2] | Antigen-presentation (frequency of MHCII-expressing cells) [3] | ATP secretion [5] | ER stress responses (phosphorylation of IRE1) [8] | Luciferase signal as a proxy of severe ER stress induction [9] | ATP secretion [10] | Severe ER stress in engrafted tumors (tumoral luciferase signal over time) [11] | further results
CC(=O)O[C@@]12CO[C@@H]1C[C@H](O)[C@@]1(C)C(=O)[C@H](O)C3=C(C)[C@@H](OC(=O)[C@H](O)[C@@H](NC(=O)OC(C)(C)C)c4ccccc4)C[C@@](O)([C@@H](OC(=O)c4ccccc4)[C@H]21)C3(C)C [Docetaxel, docetaxel, reference compound] | do not elicit JNK phosphorylation | neither Paclitaxel nor Docetaxel elicited ATP secretion | – | – | – | – | – | – | –
CC(=O)O[C@H]1C(=O)[C@@]2(C)[C@H]([C@H](OC(=O)c3ccccc3)[C@]3(O)C[C@H](OC(=O)[C@H](O)[C@@H](NC(=O)c4ccccc4)c4ccccc4)C(C)=C1C3(C)C)[C@]1(OC(C)=O)CO[C@@H]1C[C@@H]2O [Paclitaxel, paclitaxel] | do not elicit JNK phosphorylation | neither Paclitaxel nor Docetaxel elicited ATP secretion | did not lead to changes in macrophage antigen-presentation | equivalent levels of ATP secretion | activated ER stress responses | modest luciferase signal at the peak doses | modest ATP secretion | does not induce ER stress | HMGB1 release (cell lines responding) [4]: HMGB1 release in most of the cell lines assayed (5/7); ATP secretion (skin cell lines responding) [6]: ATP secretion from only 1 of 3 cell lines; ATP secretion [7]: modest ATP secretion; Severe ER stress response (phosphorylation of JNK) [8]: Robust JNK phosphorylation was not seen with lower doses
CC[C@H](C)[C@H](NC(=O)[C@H]1CCCCN1C)C(=O)N(C)[C@H](C[C@@H](OC(C)=O)c1nc(C(=O)N[C@@H](Cc2ccccc2)C[C@H](C)C(=O)O)cs1)C(C)C [Tubulysin M, tubulysin M, reference compound] | – | – | – | – | – | – | – | – | ATP secretion (cell lines responding) [12]: potent ATP secretion from 3 of 3 cell lines evaluated; Cytokine and chemokine production [13]: increase of the indicated cytokines and chemokines that was more robust than treatment with Paclitaxel
C=C1C[C@@H]2CC[C@@]34C[C@H]5O[C@H]6[C@@H](O3)[C@H]3O[C@H](CC[C@@H]3O[C@H]6[C@H]5O4)CC(=O)C[C@@H]3[C@@H](OC)[C@@H](C[C@H](O)CN)O[C@H]3C[C@H]3O[C@@H](CC[C@@H]1O2)C[C@@H](C)C3=C [eribulin, reference compound] | elicits severe ER stress (phosphorylation of IRE1 and JNK) | Increased AIR secretion | – | – | – | – | – | – | –
CC[C@]1(O)C[C@H]2CN(CCc3c([nH]c4ccccc34)[C@@](C(=O)OC)(c3cc4c(cc3OC)N(C=O)[C@H]3[C@@](O)(C(=O)OC)[C@H](OC(C)=O)[C@]5(CC)C=CCN6CC[C@]43[C@@H]65)C2)C1 [vincristine] | – | – | increase in antigen-presentation in 1/2 tumor cell lines | equivalent levels of ATP secretion | activated ER stress responses | dose-dependent increase in luciferase signal | robust ATP secretion | rapidly elicited severe ER stress | ATP secretion (cell lines responding) [14]: ATP secretion in most of the cell lines assayed (6/7); ATP secretion response compared with Paclitaxel [14]: more robust response than Paclitaxel in all cell lines assayed
ASG-22ME | – | – | – | – | – | – | – | – | Cytokine and chemokine production [15]: increase of the indicated cytokines and chemokines that was more robust than treatment with Paclitaxel; ATP secretion [16]: robust ATP secretion that was comparable to thapsigargin; Macrophage antigen presentation (frequency of MHCII-expressing macrophages) [17]: increase in macrophage antigen presentation that was more robust than treatment with Paclitaxel; ATP secretion [18]: potent ATP secretion
